Activity calls are given as the source filed them. No cut-off for these calls is given here.
Legend:
Nicotiana tabacum [1] = test: Induction of systemic acquired resistance against Oidium in Nicotiana tabacum cv. Xanthi nc (tobacco) assessed as decrease in lesion size applied as soil-drench 5 days prior to infection measured after 5 days; assay type: functional, organism-based
Nicotiana tabacum [2] = test: Induction of N-gene mediated systemic acquired resistance against TMV in Nicotiana tabacum cv. Xanthi nc (tobacco) assessed as decrease in lesion size at 0.1 mg/pot applied by soil-drench 5 days prior to infection measured after 5 days relative to control; assay type: functional, organism-based
[3] = system: Pseudomonas amygdali pv. tabaci; test: Antibacterial activity against Pseudomonas syringae pv. tabaci up to 500 ug/ml; assay type: functional, organism-based
Nicotiana tabacum [4] = test: Induction of systemic acquired resistance against Pseudomonas syringae pv. tabaci in Nicotiana tabacum cv. Xanthi nc (tobacco) assessed as decrease in Nicotiana tabacum (tobacco) wildfire disease symptoms at 1 to 2 mg/pot applied as soil-drench 5 days prior to infection measured after 3 days relative to control; assay type: functional, organism-based
Nicotiana tabacum [5] = test: Induction of N-gene mediated systemic acquired resistance against TMV in Nicotiana tabacum cv. Xanthi nc (tobacco) assessed as lesion size at 0.1 mg/pot applied by soil-drench 5 days prior to infection measured after 5 days relative to control; assay type: functional
Nicotiana tabacum [6] = test: (§1) Induction of systemic acquired resistance against Pseudomonas syringae pv. tabaci in Nicotiana tabacum cv. Xanthi nc (tobacco) assessed as inhibition of bacterial growth in infected tissues at 1 to 2 mg/pot applied as soil-drench 5 days prior to infection measured after 3 days relative to control; assay type: functional, organism-based
Nicotiana tabacum [7] = test: Induction of N-gene mediated systemic acquired resistance against TMV in Nicotiana tabacum cv. Xanthi nc (tobacco) assessed as lesion size at 10 mg/pot applied by soil-drench 5 days prior to infection measured after 5 days relative to control; assay type: functional
Nicotiana tabacum [8] = test: Induction of N-gene mediated systemic acquired resistance against TMV in Nicotiana tabacum cv. Xanthi nc (tobacco) assessed as lesion size at 1 mg/pot applied by soil-drench 5 days prior to infection measured after 5 days relative to control; assay type: functional
Nicotiana tabacum [9] = test: Induction of systemic acquired resistance in Nicotiana tabacum cv. Xanthi nc (tobacco) assessed as effect on total salicylic acid level in leaves at 1 mg/pot applied as soil-drench measured up to 7 days by fluorometric analysis relative to control; assay type: functional, organism-based
Nicotiana tabacum [10] = test: Induction of systemic acquired resistance in Nicotiana tabacum cv. Xanthi nc (tobacco) assessed as effect on free salicylic acid level in leaves at 1 mg/pot applied as soil-drench measured up to 7 days by fluorometric analysis relative to control; assay type: functional, organism-based
Nicotiana tabacum [11] = test: Induction of systemic acquired resistance in transgenic Nicotiana tabacum cv. Xanthi nc (tobacco) expressing bacterial NahG assessed as increase in PR1 mRNA level at 0.01 to 0.5 mg/ml applied as foliar spray measured after 4 days by Northern blot analysis relative to control; assay type: functional, organism-based
Nicotiana tabacum [12] = test: Induction of systemic acquired resistance in transgenic Nicotiana tabacum cv. Xanthi nc (tobacco) expressing bacterial NahG assessed as increase in PR1 mRNA level at 1 to 2 mg/pot applied as soil-drench measured after 4 days by Northern blot analysis relative to control; assay type: functional, organism-based
Nicotiana tabacum [13] = test: as §1, with “tabaci in transgenic Nicotiana tabacum” for “tabaci in Nicotiana tabacum”, “nc (tobacco) expressing bacterial NahG assessed as” for “nc (tobacco) assessed as”; assay type: functional, organism-based
Nicotiana tabacum [14] = test: Induction of N-gene mediated systemic acquired resistance against TMV in transgenic Nicotiana tabacum cv. Xanthi nc (tobacco) expressing bacterial NahG assessed as decrease in lesion size at 0.1 to 2 mg/pot applied by soil-drench 5 days prior to infection measured after 5 days relative to control; assay type: functional, organism-based
Nicotiana tabacum [15] = test: Induction of systemic acquired resistance in Nicotiana tabacum cv. Xanthi nc (tobacco) assessed as increase in PR5 mRNA level at 0.01 to 0.5 mg/ml applied as foliar spray measured after 4 days by Northern blot analysis relative to control; assay type: functional, organism-based
Nicotiana tabacum [16] = test: Induction of systemic acquired resistance in Nicotiana tabacum cv. Xanthi nc (tobacco) assessed as increase in PR2 mRNA level at 0.01 to 0.5 mg/ml applied as foliar spray measured after 4 days by Northern blot analysis relative to control; assay type: functional, organism-based
Nicotiana tabacum [17] = test: Induction of systemic acquired resistance in Nicotiana tabacum cv. Xanthi nc (tobacco) assessed as increase in PR1 mRNA level at 0.01 to 0.5 mg/ml applied as foliar spray measured after 4 days by Northern blot analysis relative to control; assay type: functional, organism-based
Nicotiana tabacum [18] = test: Induction of systemic acquired resistance in Nicotiana tabacum cv. Xanthi nc (tobacco) assessed as increase in PR1 mRNA level at 1 mg/pot applied as soil-drench measured after 24 hr by Northern blot analysis relative to control; assay type: functional, organism-based
Nicotiana tabacum [19] = test: Induction of systemic acquired resistance in Nicotiana tabacum cv. Xanthi nc (tobacco) assessed as increase in PR5 mRNA level at 1 to 2 mg/pot applied as soil-drench measured after 4 days by Northern blot analysis relative to control; assay type: functional, organism-based
Nicotiana tabacum [20] = test: Induction of systemic acquired resistance in Nicotiana tabacum cv. Xanthi nc (tobacco) assessed as increase in PR2 mRNA level at 1 to 2 mg/pot applied as soil-drench measured after 4 days by Northern blot analysis relative to control; assay type: functional, organism-based
Nicotiana tabacum [21] = test: Induction of systemic acquired resistance in Nicotiana tabacum cv. Xanthi nc (tobacco) assessed as increase in PR1 mRNA level at 1 to 2 mg/pot applied as soil-drench measured after 4 days by Northern blot analysis relative to control; assay type: functional, organism-based

## CSC(=O)c1cccc2nnsc12
Nicotiana tabacum [1]
  Activity: Dose-dependent effect
Nicotiana tabacum [2]
  Activity: Active

## Cn1nc(Cl)cc1C(=O)O [3-CHLORO-1-METHYL-1H-PYRAZOLE-5-CARBOXYLIC ACID]
Nicotiana tabacum [1]
  Activity: Dose-dependent effect
[3]
  Activity: inactive
Nicotiana tabacum [4]
  Activity: Active
Nicotiana tabacum [5]
  Activity: 50%
Nicotiana tabacum [6]
  Activity: Active
Nicotiana tabacum [7]
  Activity: <10%
Nicotiana tabacum [8]
  Activity: <10%
Nicotiana tabacum [9]
  Activity: inactive
Nicotiana tabacum [10]
  Activity: inactive
Nicotiana tabacum [11]
  Activity: Active
Nicotiana tabacum [12]
  Activity: Active
Nicotiana tabacum [13]
  Activity: Active
Nicotiana tabacum [14]
  Activity: Active
Nicotiana tabacum [15]
  Activity: Active
Nicotiana tabacum [16]
  Activity: Active
Nicotiana tabacum [17]
  Activity: Active
Nicotiana tabacum [18]
  Activity: Active
Nicotiana tabacum [19]
  Activity: Active
Nicotiana tabacum [20]
  Activity: Active
Nicotiana tabacum [21]
  Activity: Active
